Experimental data published in patent US11059780B2, “Substituted pyrrolidine compound and use thereof” (Takeda Pharmaceutical Company Limited, priority 2017, dated 2021).

What follows are compounds tested against T1, human orexin type 2 receptor (hOX2R) (Homo sapiens, UniProt O43614) (assay: Measurement of orexin type 2 receptor agonist activity (Fluo-4 calcium fluorescence, CHO cells forcibly expressing human OX2 receptor)). Conditions: test compound 3 μM, DMSO = 0%, orexin A (human) 10 nM = 100%.
T1 construct: expressed in transfected cells
T1 sequence (O43614 1-444): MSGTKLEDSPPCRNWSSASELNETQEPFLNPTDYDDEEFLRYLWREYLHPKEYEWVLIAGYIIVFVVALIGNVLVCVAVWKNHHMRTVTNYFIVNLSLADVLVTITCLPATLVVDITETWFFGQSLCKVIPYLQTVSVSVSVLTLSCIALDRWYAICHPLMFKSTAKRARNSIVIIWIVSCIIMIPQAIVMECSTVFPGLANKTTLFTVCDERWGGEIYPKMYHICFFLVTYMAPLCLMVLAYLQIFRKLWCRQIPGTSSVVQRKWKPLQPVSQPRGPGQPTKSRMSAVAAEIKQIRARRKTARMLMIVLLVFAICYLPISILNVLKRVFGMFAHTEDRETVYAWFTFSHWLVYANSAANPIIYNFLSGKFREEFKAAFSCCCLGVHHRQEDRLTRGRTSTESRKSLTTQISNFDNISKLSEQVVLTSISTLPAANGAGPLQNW
Assay type: cell-based
Source text: Experimental Example 1: Obtainment of Cell Stably Expressing Human Orexin Type 2 Receptor (hOX2R)
To obtain a cell clone stably expressing human orexin type 2 receptor, human orexin type 2 receptor cDNA was inserted into pcDNA3.1(+) plasmid vector (Invitrogen), and a plasmid DNA for expression of human orexin type 2 receptor (pcDNA3.1(+)/hOX2R) was cloned. The plasmid DNA was introduced into CHO-dhfr cell by an electroporation method, and human orexin type 2 receptor expressing clone cells were obtained by limiting dilution method by using G418 drug resistance as a selection marker.
Experimental Example 2: Measurement of Orexin Type 2 Receptor Agonist Activity
CHO cells forcibly expressing human OX2 receptor were seeded in each well of 384 well black transparent bottom plate (BD Falcon) at 7,500 cells/well, and cultured for one day in a 5% CO2 incubator at 37° C. After removal of the medium in the cell plate, assay buffer A containing a calcium indicator (HBSS (Life Technologies), 20 mM HEPES (Life Technologies), 0.1% BSA (Wako Pure Chemical Industries, Ltd.), 2.5 μg/mL Fluo-4 AM (DOJINDO Chemical), 0.08% Pluronic F127 (DOJINDO Chemical), 1.25 mM probenecid (DOJINDO Chemical)) was added at 30 μL/well. The plate was stood for 30 min in a 5% CO2 incubator at 37° C., and further stood at room temperature for 30 min. A test compound prepared by diluting with assay buffer B (HBSS, 20 mM HEPES, 0.1% BSA) was added at 10 μL/well, and the fluorescence value was measured by FDSSpCELL (Hamamatsu Photonics K.K.) every one sec for 1 min, and thereafter every two sec for 1 min 40 sec. The activity (%) of the test compound was calculated assuming that variation in the fluorescence value when DMSO was added instead of the test compound was 0% […], and variation in the fluorescence value when orexin A (human) (PEPTIDE INSTITUTE, INC.) was added at the final concentration of 10 nM was 100% […]. The activity of each compound at the concentration of 3 μM was shown below.

| SMILES | OX2R agonist activity (3 μM, %) [%] |
| --- | --- |
| CCc1ccc(C)c(C(=O)N2C[C@@H](OC)[C@H](Oc3cccc(CS(=O)(=O)N(C)C4CCOCC4)c3)C2)c1OC (relative stereo) [Example 164, trans-1-(3-((1-(3-ethyl-2-methoxy-6-methylbenzoyl)-4-methoxypyrrolidin-3-yl)oxy)phenyl)-N-methyl-N-(tetrahydro-2H-pyran-4-yl)methanesulfonamide] | 86 |
| CO[C@@H]1CN(C(=O)c2cc(C)ccc2C)C[C@H]1Oc1cccc(CS(=O)(=O)N2CCC23CN(C(C)=O)C3)c1 (relative stereo) [Example 90, trans-1-(1-((3-((1-(2,5-dimethylbenzoyl)-4-methoxypyrrolidin-3-yl)oxy)benzyl)sulfonyl)-1,6-diazaspiro[3.3]hept-6-yl)ethanone] | 96 |
| CO[C@@H]1CN(C(=O)c2cc(C)ccc2C)C[C@H]1Oc1cccc(CS(=O)(=O)N(C)C2CCOC(C)(C)C2)c1 (relative stereo) [Example 156, trans-1-(3-((1-(2,5-dimethylbenzoyl)-4-methoxypyrrolidin-3-yl)oxy)phenyl)-N-(2,2-dimethyltetrahydro-2H-pyran-4-yl)-N-methylmethanesulfonamide] | 92 |
| CO[C@@H]1CN(C(=O)c2cc(C)ccc2C)C[C@H]1Oc1cccc(CS(=O)(=O)N2CCCC2c2ccncc2)c1 (relative stereo) [Example 18, trans-(2,5-dimethylphenyl)(3-methoxy-4-(3-(((2-(pyridin-4-yl)pyrrolidin-1-yl)sulfonyl)methyl)phenoxy)pyrrolidin-1-yl)methanone] | 75 |
| CO[C@@H]1CN(C(=O)c2cc(C)ccc2C)C[C@H]1Oc1cccc(NS(=O)(=O)N(C)C2CCOC2)c1 (relative stereo) [Example 46, trans-N′-(3-((1-(2,5-dimethylbenzoyl)-4-methoxypyrrolidin-3-yl)oxy)phenyl)-N-methyl-N-(tetrahydrofuran-3-yl)sulfuric diamide] | 94 |
| CO[C@@H]1CN(C(=O)c2c(C)cccc2C2CC2)C[C@H]1Oc1cccc(CS(=O)(=O)N(C)C2CCOCC2)c1 (relative stereo) [Example 160, trans-1-(3-((1-(2-cyclopropyl-6-methylbenzoyl)-4-methoxypyrrolidin-3-yl)oxy)phenyl)-N-methyl-N-(tetrahydro-2H-pyran-4-yl)methanesulfonamide] | 111 |
| CO[C@@H]1CN(C(=O)C(F)(F)c2ccccc2)C[C@H]1Oc1cccc(CS(=O)(=O)N(C)C2CCOCC2)c1 (relative stereo) [Example 145, trans-1-(3-((1-(difluoro(phenyl)acetyl)-4-methoxypyrrolidin-3-yl)oxy)phenyl)-N-methyl-N-(tetrahydro-2H-pyran-4-yl)methanesulfonamide] | 45 |
| COC1CN(C(=O)c2cc(C)ccc2C)CC1Oc1cccc(CS(=O)(=O)N2CCCC2c2ccccc2C)c1 (stereo not drawn) [Example 41, trans-(2,5-dimethylphenyl)(3-methoxy-4-(3-(((2-(2-methylphneyl)pyrrolidin-1-yl)sulfonyl)methyl)phenoxy)pyrrolidin-1-yl)methanone] | 75 |
| CO[C@@H]1CN(C(=O)c2ccccc2C2CC2)C[C@H]1Oc1cccc(CS(=O)(=O)N(C)C2CCOCC2)c1 (relative stereo) [Example 153, trans-1-(3-((1-(2-cyclopropylbenzoyl)-4-methoxypyrrolidin-3-yl)oxy)phenyl)-N-methyl-N-(tetrahydro-2H-pyran-4-yl)methanesulfonamide] | 105 |
| CCc1cccc(C)c1C(=O)N1C[C@@H](OC)[C@H](Oc2cccc(NS(=O)(=O)N3CC4CC4C3)c2)C1 (stereo partly drawn) [Example 134, N-(3-(((3R,4R)-1-(2-ethyl-6-methylbenzoyl)-4-methoxypyrrolidin-3-yl)oxy)phenyl)-3-azabicyclo[3.1.0]hexane-3-sulfonamide] | 108 |
| COC1CN(C(=O)c2cc(C)ccc2C)CC1Oc1cccc(NS(=O)(=O)N2C[C@@H]3C[C@H]3C2)c1 (relative stereo) [Example 73, trans-N-(3-((1-(2,5-dimethylbenzoyl)-4-methoxypyrrolidin-3-yl)oxy)phenyl)-3-azabicyclo[3.1.0]hexane-3-sulfonamide] | 91 |
| CO[C@@H]1CN(C(=O)c2cc(C)ccc2C)C[C@H]1Oc1cccc(NS(=O)(=O)N2CCCC2Cc2cccnc2)c1 (relative stereo) [Example 67, trans-N-(3-((1-(2,5-dimethylbenzoyl)-4-methoxypyrrolidin-3-yl)oxy)phenyl)-2-(pyridin-3-ylmethyl)pyrrolidine-1-sulfonamide] | 82 |
| COc1ccccc1C1CCCN1S(=O)(=O)Cc1cccc(O[C@@H]2CN(C(=O)c3cc(C)ccc3C)C[C@H]2OC)c1 (relative stereo) [Example 83, trans-(2,5-dimethylphenyl)(3-methoxy-4-(3-(((2-(2-methoxyphenyl)pyrrolidin-1-yl)sulfonyl)methyl)phenoxy)pyrrolidin-1-yl)methanone] | 75 |
| CO[C@@H]1CN(C(=O)c2cc(C)ccc2C)C[C@H]1Oc1cccc(CS(=O)(=O)N2CCCC2c2cccnc2)c1 (relative stereo) [Example 16, trans-(2,5-dimethylphenyl)(3-methoxy-4-(3-(((2-(pyridin-3-yl)pyrrolidin-1-yl)sulfonyl)methyl)phenoxy)pyrrolidin-1-yl)methanone] | 77 |
| CO[C@@H]1CN(C(=O)C2(c3ccccc3)CCC2)C[C@H]1Oc1cccc(CS(=O)(=O)N(C)C2CCOCC2)c1 (relative stereo) [Example 147, trans-1-(3-((4-methoxy-1-((1-phenylcyclobutyl)carbonyl)pyrrolidin-3-yl)oxy)phenyl)-N-methyl-N-(tetrahydro-2H-pyran-4-yl)methanesulfonamide] | 37 |
| CCc1cccc(C)c1C(=O)N1C[C@@H](OC)[C@H](Oc2cccc(CS(=O)(=O)N(C)C3CCOC(C)(C)C3)c2)C1 (relative stereo) [Example 140, trans-N-(2,2-dimethyltetrahydro-2H-pyran-4-yl)-1-(3-((1-(2-ethyl-6-methylbenzoyl)-4-methoxypyrrolidin-3-yl)oxy)phenyl)-N-methylmethanesulfonamide] | 109 |
| CO[C@@H]1CN(C(=O)c2cc(C)ccc2C)C[C@H]1Oc1cccc(CS(=O)(=O)N2CCC23CCN(C(=O)OC(C)(C)C)C3)c1 (relative stereo) [Example 33, tert-butyl trans-1-((3-((1-(2,5-dimethylbenzoyl)-4-methoxypyrrolidin-3-yl)oxy)benzyl)sulfonyl)-1,6-diazaspiro[3.4]octane-6-carboxylate] | 105 |
| CO[C@@H]1CN(C(=O)c2cc(C)ccc2C)C[C@H]1Oc1cccc(CS(=O)(=O)N2CCCC2c2cccnc2C)c1 (relative stereo) [Example 114, trans-(2,5-dimethylphenyl)(3-methoxy-4-(3-(((2-(2-methylpyridin-3-yl)pyrrolidin-1-yl)sulfonyl)methyl)phenoxy)pyrrolidin-1-yl)methanone] | 100 |
| CO[C@@H]1CN(C(=O)c2cc(C)ccc2C)C[C@H]1Oc1cccc(NS(=O)(=O)N(C)C2CCOCC2)c1 (relative stereo) [Example 47, trans-N′-(3-((1-(2,5-dimethylbenzoyl)-4-methoxypyrrolidin-3-yl)oxy)phenyl)-N-methyl-N-(tetrahydro-2H-pyran-4-yl)sulfuric diamide] | 106 |
| CO[C@@H]1CN(C(=O)c2cc(C)ccc2C)C[C@H]1Oc1cccc(NS(=O)(=O)N2CCC2)c1 (relative stereo) [Example 48, trans-N-(3-((1-(2,5-dimethylbenzoyl)-4-methoxypyrrolidin-3-yl)oxy)phenyl)azetidine-1-sulfonamide] | 62 |
